Laboratory results taken from patent US12653186B2, “[(1-phenyl-5-(heteroaryl)-1H-1,2,4-triazol-3-yl)oxy] acetic acid derivatives as safeners for the protection of useful plants and crop plants” (BAYER AKTIENGESELLSCHAFT, priority 2020, dated 2026).

How the values were obtained:
summer barley (HORVS) = experiment: Reduction of damage by mesosulfuron-methyl on summer barley (safener action, greenhouse, post-emergence); format: in vivo, summer barley (HORVS; cv. Montoya); set-up: key: 0: no reduction in damage (appearance corresponding to the herbicide control); 1: slight reduction in damage; 2: distinct reduction in damage; 3: significant reduction in damage; 4: complete reduction in damage (appearance corresponding to the untreated control); conditions: then mesosulfuron-methyl 40-60 g/ha, visual assessment 9-13 days after application, 2 repeats
Description: (§1) 2.2 Relative Action of Selected Compounds of the Invention Using the Example of Reduction of Damage by Mesosulfuron-Methyl on Summer Barley (HORVS) The seeds of the crop plants to be treated are laid out in sandy loam in plastic pots (diameter ˜4 cm), covered with soil and grown in a greenhouse under good conditions for germination and growth. The trial plants were treated at the early leaf stage (BBCH10-BBCH12). In the course of this, the inventive compounds of the general formula (I) formulated in the form of wettable powders (WP) were sprayed onto the above-ground parts of the plants as an aqueous suspension with a water application rate corresponding to 800 l/ha with addition of wetting agent (e.g. 0.2% Genapol-LRO or 0.2% Mero) in the specified dose. This was followed by the application of the herbicide. For this purpose, mesosulfuron-methyl, formulated in the form of water-dispersible granules (WG), was sprayed onto the above-ground parts of the plants in the form of an aqueous dispersion with a water application rate corresponding to 800 l/ha with addition of wetting agent (e.g. 0.2% Genapol-LRO or 1 l/ha Biopower) in a dose of 40-60 g/ha. The dose of the herbicide was chosen here such that it causes visually apparent damage (min. 30%, max. 75%) compared to untreated crop plants at the evaluation time on a control group of crop plants without safener treatment that were included in the same trial. After application, the plants were cultivated under good growth conditions in a greenhouse. 9-13 days after application, the efficacy of the test compounds was assessed visually. For this purpose, the appearance of the plants treated with the test compound and herbicide was compared to the corresponding herbicide controls (without safener; with clearly visible damage) and the untreated controls (without damage). The damage-reducing effect of the test compounds was expressed here separately for 2 repeats in graded efficacy codes according to the following scheme: • 0: no reduction in damage (appearance corresponding to the herbicide control) • 1: slight reduction in damage • 2: distinct reduction in damage • 3: significant reduction in damage • 4: complete reduction in damage (appearance corresponding to the untreated control) The trials show clear efficacy of the inventive compounds selected by way of example with regard to the reduction in damage to the summer barley crop plant (HORVS; cv. Montoya) caused by the herbicide mesosulfuron-methyl: […]

summer wheat (TRZAS) = experiment: Reduction of damage by mesosulfuron-methyl on summer wheat (safener action, greenhouse, post-emergence); format: in vivo, summer wheat (TRZAS; cv. Triso); set-up: key: 0: no reduction in damage (appearance corresponding to the herbicide control); 1: slight reduction in damage; 2: distinct reduction in damage; 3: significant reduction in damage; 4: complete reduction in damage (appearance corresponding to the untreated control); conditions: then mesosulfuron-methyl 40-60 g/ha, visual assessment 9-13 days after application
Description: as §1, with “2.1” for “2.2”, “Wheat (TRZAS)” for “Barley (HORVS)”, “here” for “here separately for 2 repeats”, “wheat” for “barley”, “(TRZAS;” for “(HORVS;”, “Triso)” for “Montoya)”

## COCCOC(=O)COc1nc(-c2ccc(Cl)cn2)n(-c2ccc(F)cc2F)n1 [I.73-38]
Summer barley (HORVS); safener 100 g/ha
  Efficacy of the safener (efficacy code): 2-3

## COC(=O)COc1nc(-c2ncccc2F)n(-c2ccc(Cl)cc2F)n1 [I.64-49]
Summer wheat (TRZAS); safener 500 g/ha
  Efficacy of the safener (efficacy code): 2
Summer barley (HORVS); safener 500 g/ha
  Efficacy of the safener (efficacy code): 2

## CCOC(=O)COc1nc(-c2ccc(F)cn2)n(-c2ccccc2F)n1 [I.32-2]
Summer wheat (TRZAS); safener 100 g/ha
  Efficacy of the safener (efficacy code): 2

## O=C(O)COc1nc(-c2ccc(Cl)cn2)n(-c2ccc(F)cc2F)n1 [I.30-38, {[5-(5-Chloropyridin-2-yl)-1-(2,4-difluorophenyl)-1H-1,2,4-triazol-3-yl]oxy}acetic acid]
Summer wheat (TRZAS); safener 100 g/ha
  Efficacy of the safener (efficacy code): 2
Summer barley (HORVS); safener 100 g/ha
  Efficacy of the safener (efficacy code): 2

## CCOC(=O)COc1nc(-c2ccc(F)cn2)n(-c2ccc(Cl)cc2)n1 [I.32-7]
Summer wheat (TRZAS); safener 100 g/ha
  Efficacy of the safener (efficacy code): 2
Summer barley (HORVS); safener 100 g/ha
  Efficacy of the safener (efficacy code): 2-3

## O=C(O)COc1nc(-c2ccc(F)cn2)n(-c2ccc(F)cc2)n1 [I.33-4]
Summer wheat (TRZAS); safener 100 g/ha
  Efficacy of the safener (efficacy code): 2

## O=C(COc1nc(-c2ccc(Cl)cn2)n(-c2ccc(F)cc2F)n1)OCC1OCCO1 [I.70-38]
Summer barley (HORVS); safener 100 g/ha
  Efficacy of the safener (efficacy code): 2

## O=C(O)COc1nc(-c2ccc(F)cn2)n(-c2ccc(Cl)cc2F)n1 [I.33-49]
Summer wheat (TRZAS); safener 100 g/ha
  Efficacy of the safener (efficacy code): 2

## CCOC(=O)COc1nc(-c2ccc(F)cn2)n(-c2ccc(F)cc2F)n1 [I.32-38]
Summer wheat (TRZAS); safener 100 g/ha
  Efficacy of the safener (efficacy code): 2
Summer barley (HORVS); safener 100 g/ha
  Efficacy of the safener (efficacy code): 2

## COC(=O)COc1nc(-c2ncccc2F)n(-c2ccccc2)n1 [I.64-1]
Summer wheat (TRZAS); safener 100 g/ha
  Efficacy of the safener (efficacy code): 2
Summer wheat (TRZAS); safener 500 g/ha
  Efficacy of the safener (efficacy code): 2
Summer barley (HORVS); safener 500 g/ha
  Efficacy of the safener (efficacy code): 2

## COC(=O)COc1nc(-c2ccc(F)cn2)n(-c2ccc(F)cc2Cl)n1 [I.31-48]
Summer wheat (TRZAS); safener 100 g/ha
  Efficacy of the safener (efficacy code): 2
Summer barley (HORVS); safener 100 g/ha
  Efficacy of the safener (efficacy code): 2

## CCOC(=O)COc1nc(-c2ccc(F)cn2)n(-c2ccc(F)cc2)n1 [I.32-4]
Summer wheat (TRZAS); safener 100 g/ha
  Efficacy of the safener (efficacy code): 2

## CCOC(=O)COc1nc(-c2ccc(Cl)cn2)n(-c2ccccc2F)n1 [I.29-2]
Summer wheat (TRZAS); safener 100 g/ha
  Efficacy of the safener (efficacy code): 2

## COC(=O)COc1nc(-c2ccncc2Cl)n(-c2ccc(Cl)cc2F)n1 [I.43-49]
Summer barley (HORVS); safener 100 g/ha
  Efficacy of the safener (efficacy code): 2

## COC(=O)CCOC(=O)COc1nc(-c2ccc(Cl)cn2)n(-c2ccc(F)cc2F)n1 [I.67-38]
Summer wheat (TRZAS); safener 100 g/ha
  Efficacy of the safener (efficacy code): 2

## COC(=O)COc1nc(-c2ccc(Cl)cn2)n(-c2ccc(F)cc2F)n1 [I.28-38, Methyl {[5-(5-chloropyridin-2-yl)-1-(2,4-difluorophenyl)-1H-1,2,4-triazol-3-yl]oxy}acetate]
Summer barley (HORVS); safener 100 g/ha
  Efficacy of the safener (efficacy code): 2

## COC(=O)COc1nc(-c2ccc(F)cn2)n(-c2ccc(Cl)cc2F)n1 [I.31-49]
Summer wheat (TRZAS); safener 100 g/ha
  Efficacy of the safener (efficacy code): 2
Summer barley (HORVS); safener 100 g/ha
  Efficacy of the safener (efficacy code): 2

## O=C(COc1nc(-c2ccc(Cl)cn2)n(-c2ccc(F)cc2F)n1)OCC1CC1 [I.80-38, Cyclopropylmethyl {[5-(5-chloropyridin-2-yl)-1-(2,4-difluorophenyl)-1H-1,2,4-triazol-3-yl]oxy}acetate]
Summer wheat (TRZAS); safener 100 g/ha
  Efficacy of the safener (efficacy code): 2

## COC(=O)COc1nc(-c2ccc(F)cn2)n(-c2ccc(Cl)cc2)n1 [I.31-7]
Summer wheat (TRZAS); safener 100 g/ha
  Efficacy of the safener (efficacy code): 2
Summer barley (HORVS); safener 100 g/ha
  Efficacy of the safener (efficacy code): 2

## CCOC(=O)COc1nc(-c2ccc(Cl)cn2)n(-c2ccc(F)cc2F)n1 [I.29-38]
Summer wheat (TRZAS); safener 100 g/ha
  Efficacy of the safener (efficacy code): 2
Summer barley (HORVS); safener 100 g/ha
  Efficacy of the safener (efficacy code): 2

## O=C(COc1nc(-c2ccc(Cl)cn2)n(-c2ccc(F)cc2F)n1)OCC1CCOC1 (centres unmarked) [I.69-38]
Summer barley (HORVS); safener 100 g/ha
  Efficacy of the safener (efficacy code): 2-3

## O=C(COc1nc(-c2ccc(Cl)cn2)n(-c2ccc(F)cc2F)n1)OCC1CCCO1 (centres unmarked) [I.68-38]
Summer wheat (TRZAS); safener 100 g/ha
  Efficacy of the safener (efficacy code): 2
Summer barley (HORVS); safener 100 g/ha
  Efficacy of the safener (efficacy code): 2

## COC(=O)COc1nc(-c2ccc(F)cn2)n(-c2ccc(F)cc2F)n1 [I.31-38]
Summer wheat (TRZAS); safener 100 g/ha
  Efficacy of the safener (efficacy code): 2

## CCOC(=O)COc1nc(-c2ccc(F)cn2)n(-c2ccc(Cl)cc2F)n1 [I.32-49]
Summer wheat (TRZAS); safener 100 g/ha
  Efficacy of the safener (efficacy code): 2
Summer barley (HORVS); safener 100 g/ha
  Efficacy of the safener (efficacy code): 2

## COC(=O)COc1nc(-c2ccc(Cl)cn2)n(-c2ccc(Cl)cc2F)n1 [I.28-49]
Summer wheat (TRZAS); safener 100 g/ha
  Efficacy of the safener (efficacy code): 2
Summer barley (HORVS); safener 100 g/ha
  Efficacy of the safener (efficacy code): 2
